These results are taken from article PMC9081605, “A High-Throughput Toxicity Screen of 42 Per- and Polyfluoroalkyl Substances (PFAS) and Functional Assessment of Migration and Gene Expression in Human Placental Trophoblast Cells” (Frontiers in Toxicology, 2022).

“Also recorded” adds a separate entry of the source. Bounds are passed on as bounds.

What all share (assay type): cell-based, human
Data set [1] has as its system JEG-3 cells. Nature of the data set: Proliferation, change in confluence 0-24 h (IncuCyte Zoom, HTTS). Conditions: for minimal effective concentration: read-out: Prolif ↓, lowest concentration at which the mean response value exceeded the mean control value ± 2*SD (rough binning); for cellular proliferation relative to vehicle control (rough binning): after 24 h, in at least one concentration. The method in brief:
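Confluence measured by automated image masking at 0 h and 24 h after dosing; proliferation = 24 h minus baseline confluence. JEG-3 seeded at 2,500 cells/well, ~30–50% baseline confluence, exposed 24 h to PFAS up to 500 µM in medium with 2.5% methanol vehicle; 37°C, 5% CO2.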

In data set [2] the test system is JEG-3 cells. Put plainly: CellTiter-Glo luminescent cell viability assay (HTTS). Conditions: for EC50: four-parameter fit, estimates meeting inclusion criteria; for cell viability relative to vehicle control (rough binning): after 24 h, in at least one concentration. A digest of the protocol:
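JEG-3 cells (2,500/well) adhered overnight, then exposed 24 h to PFAS (methanol stocks; vehicle 2.5% methanol, top concentration 500 µM). Viability read by CellTiter-Glo ATP luminescence in the same wells as mitochondrial membrane potential; wells with 0 h confluence <20% or >80% excluded.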

For data set [3], the system named is JEG-3 cells. Nature of the data set: Mitochondrial membrane potential, JC-10 assay (HTTS). The settings on record: for minimal effective concentration: read-out: MMP ↓, lowest concentration at which the mean response value exceeded the mean control value ± 2*SD (rough binning); for MMP relative to vehicle control (rough binning): after 24 h, in at least one concentration. A digest of the protocol:
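JEG-3 cells seeded at 2,500 per well were exposed to PFAS for 24 h at 37 °C, with 2.5% methanol vehicle. After a PBS wash, 20 μM JC-10 was added for 1 h at 37 °C. Membrane potential was taken as the green (490/525 nm) to red (540/590 nm) fluorescence ratio.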

Data set [4] relates to JEG-3 cells. Nature of the data set: Phase contrast live cell images, cell death (positive control). Conditions: 24 h. As for the experimental part: A total of 42 perfluoroalkyl substances (PFAS) were evaluated (Supplementary Table S1 contains source and purity). PFAS stock solutions were maintained in 100% methanol as previous work has shown certain PFAS degrade when stored in dimethyl sulfoxide (DMSO; [Gaballah et al., 2020]). […] The vehicle control group consisted of 97.5% media + 2.5% methanol to match the concentration of methanol in the media at the highest PFAS concentration tested (500 µM). Menadione (50–500 µM) was used as a positive control for cytotoxicity assessment. PFAS were de-identified and assigned random numbers to eliminate bias. Chemical exposure plate maps were designed so that all experimental conditions were tested in at least technical duplicates per plate. The outer edges of each plate received media alone and were excluded from all analyses to avoid edge effects. Each plate map included 14 technical replicates of the vehicle control group and 14 technical replicates of media only. Biological replicates were defined as separate 384 well plates tested on separate days using different cell passages. The experimental workflow is depicted in Supplementary Figure S1.
JEG-3 cells were counted using a Z2 Coulter Particle Counter (Beckman Coulter, CA, United States) and seeded at a density of 2,500 cells per well in black-walled, clear bottom 384 well plates (Corning, #3764) and allowed to adhere overnight. Approximately 24 h later, 384 well plates were imaged using an IncuCyte Zoom live cell imager (Essen BioScience Inc., MI, United States) to obtain baseline cellular confluence measurements prior to chemical dosing (0 h). Media was removed from wells and replaced with fresh media containing chemical treatments (exposure media) using a Viaflo liquid handling device (Integra Biosciences, NH, United States). Within 30 min of exposure media application, plates were again imaged for cellular confluence using the IncuCyte Zoom. Plates were incubated with exposure media for 24 h and then imaged again using the IncuCyte Zoom (24 h).

Data set [5] deals with JEG-3 cells. Nature of the data set: Scratch wound migration assay. The settings on record: after 24 h of exposure, 25-200 µM. As for the experimental part: JEG-3 cells were cultured as described in Cell Culture section, and six PFAS were evaluated across an 8-point linear concentration curve ranging from 25 to 200 µM (25 µM steps): PFOA (335-67-1), GenX (62037-80-3), PFOS (1763-23-1), perfluorooctanesulfonamide (PFOSA, 754-91-6), perfluorooctanamide (PFOAA, 423-54-1), and perfluorononanoic acid (PFNA, 375-95-1). The vehicle control group consisted of 98% media + 2% methanol to match the concentration of methanol in the media at the highest PFAS concentration tested (200 µM). Cadmium chloride (25 µM) was used as a positive control for cytotoxicity ([Brooks and Fry, 2017]). Chemical exposure plate maps were designed so that all experimental conditions were tested in at least technical duplicates per plate. The outer edges of each plate received media alone and were excluded from all analyses to avoid edge effects. JEG-3 cells were counted and seeded at a density of 80,000 cells per well in black-walled, clear bottom 96-well plates (Corning #CLS3603, Millipore Sigma) and allowed to adhere and grow for 36 h. After approximately 36 h, 96-well plates were imaged on the IncuCyte Zoom to obtain cellular confluence measurements prior to chemical dosing (0 h). Media was then removed from wells and replaced with fresh serum-free media containing chemical treatments (serum-free exposure media) using the Viaflo liquid handling device. After 1 h of treatment with serum-free exposure media, plates were again imaged for cellular confluence using the IncuCyte Zoom. Serum-free exposure media was then removed from wells and wells were scratched by dragging a 200 µl pipette tip from top to bottom of each well, changing tips every well. Fresh media containing serum and chemical treatments (exposure media) was added to plates using a liquid handling device and allowed to grow for 72 h, with imaging via the IncuCyte Zoom every 6 h.
Plate well bottom images were evaluated using automated cell masking as described in Proliferation section. Cell migration was calculated as the change in cellular confluence from the baseline measurement obtained immediately post-scratch to each subsequent time point (24, 48, and 72 h, post-scratch).
Raw migration assay data exported from IncuCyte software were analyzed using GraphPad Prism 8.0 (GraphPad Software, San Diego, CA)). Prior to analysis, a minimum starting confluence value of 70% was set to ensure comparisons between samples were not skewed. Images with a starting confluence of less than 70% were excluded from analysis. Statistical analysis was performed using multiple unpaired t-tests to compare treated groups to the vehicle control followed by post hoc correction for multiple tests using the Bonferroni-Dunn method. Concentration-response analysis to determine migration assay EC50s was attempted but was not able to be modeled due to the non-linear nature of the concentration-response relationship for this endpoint.

The mark [6] stands for this setting: Homo sapiens, JEG-3, 24 h, read-out: Proliferation EC50 ± SD, JEG-3 cells, 24 h exposure, four-parameter fit, estimates meeting inclusion criteria.
The mark [7] stands for this setting: Homo sapiens, JEG-3, read-out: Proliferation EC50 ± SD (raw values), JEG-3 cells, raw model output including fits that did not meet inclusion criteria.
[8] abbreviates: Homo sapiens, JEG-3, 24 h, read-out: MMP EC50 ± SD, JEG-3 cells, 24 h exposure, four-parameter fit, estimates meeting inclusion criteria.

For the compound `CC1=CC(=O)c2ccccc2C1=O` [Menadione, reference compound], the minimal effective concentration in data set [1] (Homo sapiens, JEG-3, 24 h) was 150 µM; in data set [3] (Homo sapiens, JEG-3, 24 h), 300 µM. Also, the EC50 in data set [1] (setting [6]) was 157 ± 21.4 µM; in data set [2] (Homo sapiens, JEG-3, 24 h, read-out: Viability EC50 ± SD, JEG-3 cells, 24 h exposure) it was 206 ± 47.1 µM. Also, in data set [1], the “cellular proliferation relative to vehicle control (rough binning)” value is reported as “reduced proliferation”. For the same compound, the “cell viability relative to vehicle control (rough binning)” value in data set [2] is “reduced cell viability”. Also, the “MMP relative to vehicle control (rough binning)” value (“MMP relative to vehicle control” below) in data set [3] was “reduced MMP”. The “cytotoxicity / cell death” value in data set [4] (100 µM) is “minimal cell death; also recorded: not cytotoxic”. The cell death result in data set [4] (150 µM) was “Complete cell death”. Further, the “concentration that promoted cell death” value in data set [4] was at least 150 µM.

Regarding `O=C(O)C(F)(F)C(F)(F)C(F)(F)C(F)(F)C(F)(F)F` [Perfluorohexanoic acid], the minimal effective concentration in data set [1] (Homo sapiens, JEG-3, 24 h) turned out to be 100 µM; in data set [3] (Homo sapiens, JEG-3, 24 h), 100 µM. Also, the EC50 was 10418 ± 10 µM in data set [1] (setting [7]); 142 ± 12.6 µM in data set [3] (setting [8]); 141 ± 11.1 µM in data set [3] (Homo sapiens, JEG-3, 24 h, read-out: MMP EC50 ± SE, JEG-3 cells, 24 h). Also, the “cellular proliferation relative to vehicle control (rough binning)” value in data set [1] is reported as “reduced cellular proliferation”. The “Viability ↑, lowest concentration at which the mean response value exceeded the mean control value ± 2*SD (rough binning)” value in data set [2] (JEG-3 cells, 24 h, increase) is 300 µM. In data set [2], the “cell viability relative to vehicle control (rough binning)” value is “increased cell viability”. Moreover, in data set [3], the “MMP relative to vehicle control” value was “reduced MMP”.

On to `NC(=O)C(F)(F)C(F)(F)C(F)(F)C(F)(F)C(F)(F)C(F)(F)C(F)(F)F` [Perfluorooctanamide], for which the EC50 in data set [1] (setting [6]) is 114 µM; in data set [1] (Homo sapiens, JEG-3, 24 h, read-out: proliferation EC50 ± SE, JEG-3 cells, 24 h), 114 ± 35.6 µM; in data set [1] (setting [7]), 114 ± 35.6 µM; in data set [3] (setting [8]), 295 ± 66.1 µM. Besides, in data set [5], the “cellular migration relative to vehicle control” value is reported as “significantly reduced”.

As for `O=C(O)C(F)(F)C(F)(F)C(F)(F)C(F)(F)C(F)(F)C(F)(F)C(F)(F)C(F)(F)C(F)(F)C(F)(F)F` [Perfluoroundecanoic acid], the “Prolif ↓, lowest concentration at which the mean response value exceeded the mean control value ± 2*SD (rough binning)” value in data set [1] (JEG-3 cells, 24 h, decrease) worked out at 100 µM. The EC50 was 230 ± 13.3 µM in data set [1] (JEG-3 cells, 24 h exposure, four-parameter fit, estimates meeting inclusion criteria, read-out: Proliferation EC50 ± SD); 266 ± 12.4 µM in data set [2] (JEG-3 cells, 24 h exposure, read-out: Viability EC50 ± SD); 200 ± 4 µM in data set [3] (JEG-3 cells, 24 h exposure, four-parameter fit, estimates meeting inclusion criteria, read-out: MMP EC50 ± SD). The “cellular proliferation relative to vehicle control (rough binning)” value in data set [1] is on record as “reduced cellular proliferation”. Also, in data set [2] (JEG-3 cells, 24 h, decrease), the “Viability ↓, lowest concentration at which the mean response value exceeded the mean control value ± 2*SD (rough binning)” value stood at 300 µM. Moreover, the “cell viability relative to vehicle control (rough binning)” value in data set [2] is listed as “reduced cell viability”. Also, the “MMP ↓, lowest concentration at which the mean response value exceeded the mean control value ± 2*SD (rough binning)” value in data set [3] (JEG-3 cells, 24 h, decrease) turned out to be 100 µM. For the same compound, the “MMP relative to vehicle control” value in data set [3] was “reduced MMP”.
